Entries after “also recorded” stand apart in the source; their conditions may differ.
Key:
[1] = tested on: RA chip (HUVECs, RA patient derived FLS, RA patient monocyte-derived macrophage); experiment: cytokine secretion profile of the RA chip with versus without TNF-α priming; assay type: cell-based, human
From the text: To study blood and synovial cells from RA patients to understand the biological basis for response/non-response to TNFi, disclosed herein is a microfluidics-based 3D vascularized organ-on-a-chip model of RA. The disclosed microphysiological system integrates key features that replicate in vivo synovial architecture and monitors dynamic interactions between the critical cell types of RA, such as monocyte, monocyte-derived macrophage, and fibroblast-like synoviocytes (FLS), in real time with live-cell imaging. The RA chip is compartmentalized into three functional regions, which are partitioned by regularly spaced trapezoid micropillars that confine cell-embedded hydrogels, by balancing surface tension and capillary forces, to mimic the native in vivo tissue architecture of synovitis. The different tissue regions are a central sinus that is lined with human umbilical vein endothelial cells (HUVECs), a synovial sublining, which contains vessels extending from the central sinus, and a synovial lining region (outer ring) connected with four medium reservoirs for medium supply. HUVECs and RA patient derived FLS, and RA patient monocyte-derived macrophage are infused into different regions sequentially and cultured for 7 days to establish a microvessel network and a layered structure of synovium.
With this established synovium structure on-chip, first profiled is the cytokine environment of the engineered RA chip at two conditions (with TNF-α priming versus without) to validate the inflammation status of the RA chip.
Following the established inflammation in the RA chip, work pivoted to whether the RA inflammation can be maintained on-chip for a long period. The RA chip cultured for over 4 days and quantified inflammatory cytokines secretion with IL-6 and GM-CSF as indicator. […] It was previously shown that pre-treatment circulating type I IFN (T1IFN) activity predicts non-response to TNFi (Wampler-Muskardin et al., Front Immunol, 2020). Remarkably, no patient with a ratio >1.3 achieved remission or low disease activity. […]

monocytes in the RA chip = experiment: monocyte migration in the RA chip, live imaging microscopy; assay type: cell-based, human; conditions: RA chip primed with TNF-α versus not primed
From the text: Following the established inflammation in the RA chip, work pivoted to whether the RA inflammation can be maintained on-chip for a long period. The RA chip cultured for over 4 days and quantified inflammatory cytokines secretion with IL-6 and GM-CSF as indicator. […] It was previously shown that pre-treatment circulating type I IFN (T1IFN) activity predicts non-response to TNFi (Wampler-Muskardin et al., Front Immunol, 2020). Remarkably, no patient with a ratio >1.3 achieved remission or low disease activity. It is also possible to use single cell gene expression analysis to study blood monocytes in RA patients with high vs. low IFN-β-to-α activity ratio. […] Further on, the behaviors of monocytes in the RA chip are investigated by infusing monocytes into the central sinus of the chip, from which monocytes can distribute into the microvessel network and extravasate out of vessel. […] In addition, the effect of circulating T1IFNs on monocyte activation in the RA chip was studied.
The biomimetic Synovium-on-a-Chip (FIG. 4A) contains two areas to mimic the outer layer (lining layer) and an inner layer (sublining layer) of the synovium. […]
To confirm the role of TNF-α in regulating the RA inflammation, monitored first is monocyte dynamics in the RA device which is primed with or without TNF-α. […]

Which results are given for TNF-α?
secretion of IL-6 and GM-CSF ([1]; RA chip cultured for over 4 days after transient TNF-α treatment): generally decreased; secretion of cytokines (IL-6, GM-CSF, IL-8, MCP-1, MCP-3, MIP-3α) ([1]; RA chip with TNF-α priming versus without): increased secretion; inflammatory environment of the RA chip ([1]; primed with TNF-α at an interval of 2-3 days): maintained over 7 days; monocyte migration dynamics (migration velocity and distance) (monocytes in the RA chip): promoted monocyte migration dynamics; also recorded: Enhanced migration behaviors
